In patent US20240392241A1, “METHOD FOR PRODUCING CELL MASS INCLUDING PITUITARY TISSUE AND CELL MASS” (SUMITOMO CHEMICAL COMPANY, LIMITED, priority 2021, published 2024):

Key:
[1] = tested on: human iPS cells (HC-6 #10 strain); assay: Pituitary organoid differentiation from human iPS cells, phase contrast observation of cell mass (Example 1); assay type: cell-based; conditions: JNK—IN-8 1 μM from day 0
Method: Human iPS cells (HC-6 #10 strain, obtained from RIKEN) were cultured under feeder-free conditions according to the method described in Scientific Reports, 4, 3594 (2014). As the feeder-free medium, StemFit medium (manufactured by Ajinomoto Co., Inc.) was used and, as the feeder-free scaffold, Laminin 511-E8 (manufactured by Nippi, Inc.) was used.
As specific maintenance culturing operation, subconfluent human iPS cells (HC-6 #10 strain) were first washed twice with 0.5 mM EDTA/PBS and further treated with 5 mM EDTA/PBS at 37° C. for 10 min. After pipetting, the cells were scraped from the surface of the culture dish and dispersed into single cells. Thereafter, the human iPS cells dispersed into single cells were seeded in a plastic culture dish coated with Laminin 511-E8, and cultured under feeder-free conditions in StemFit medium in the presence of Y-27632 (ROCK inhibiting substance, manufactured by FUJIFILM Wako Pure Chemical Corporation, 10 μM). When a 6-well plate (manufactured by Corning, for cell culturing, culture area 9.5 cm^2) was used as the plastic culture dish, the number of plated cells of the human iPS cells dispersed into single cells was adjusted to 7×10^3. One day after seeding, the entire amount of the medium was changed with StemFit medium free of Y-27632. Thereafter, once in 1-2 days, the entire amount of the medium was changed with StemFit medium free of Y-27632. […]

[2] = tested on: human iPS cells (201B7 strain); assay: Immunostaining of Pitx1, Lhx3 and E-cadherin in cell aggregates on day 29 (Example 3); assay type: cell-based; conditions: 1 μM from day 0
Method: In Example 3, according to step shown in FIG. 3A, a cell population including cells that constitute pituitary tissue was produced. Specifically, human iPS cells (201B7 strain, obtained from Kyoto University) were cultured under feeder-free conditions according to the method described in Scientific Reports, 4, 3594 (2014). As the feeder-free medium, StemFit medium was used and, as the feeder-free scaffold, Laminin 511-E8 was used.
The aforementioned subconfluent human iPS cells were subjected to cell dispersion treatment using TrypLE Select, and further dispersed to single cells by pipetting operation. Thereafter, the aforementioned […] dispersed into single cells were suspended in 100 μl of a serum-free medium at 9000 cells per well of a non-cell-adhesive 96-well culture plate, and suspension cultured under the conditions of 37° C., 5% CO2. […]
The aforementioned cell aggregates on the 29th day after the start of differentiation induction were each fixed with 4% para-formaldehyde, and cryosections were prepared. […] After the primary antibody reaction, detection was performed using a secondary antibody (manufactured by Life Technologies) fluorescence-labeled with Alexa488, 555, and 647. […]

## Cc1cc(NC(=O)c2cccc(NC(=O)/C=C/CN(C)C)c2)ccc1Nc1nccc(-c2cccnc2)n1 [JNK—IN-8, (E)-3-(4-(dimethylamino)but-2-enamido)-N-(3-methyl-4-((4-(pyridin-3-yl)pyrimidin-2-yl)amino)phenyl)benzamide]
[1]; day 28, vs no addition
  differentiation efficiency (surface covered with nonneural epithelial/placode-like tissue, unintended cells suppressed): improved
[1]; day 28 of suspension culture
  size of the cell mass, smaller in diameter than without addition of JNK inhibitor: about 100 μm
[2]
  number of cells positive for Pitx1 and Lhx3 vs non-addition control: higher
  proportion of the surface of the cell mass covered with E-Cadherin-positive epithelial tissue vs non-addition control: higher
